Laboratory results taken from patent US20070073039A1, “Peptides that inhibit viral infections” (priority 2005, published 2007).
No end group written: not given here.

Tests used:
[1] = Preliminary in vivo toxicity in mice
Protocol: As a preliminary measurement of the in vivo cytotoxicity of the peptides 1, 2 and 3 (see Table 4) a group of three mice (BALB/c mice, 7 weeks old, about 23 g) were each injected with 92 μg L-type peptide 1 ( ˜4 mg/kg) in 200 μL PBS (spun 14,000 rpm for 3 minutes before injection). In the control group, each of three mice was given 200 μL PBS containing 5% DMSO. The mice were monitored for acute toxicity during the first 3 hours after injection.
No change in appearance, activity or behavior was observed. The mice were then weighed on days 0, 3, 5, 7 and 10. Peptide-injected mice gained weight at the same rate as the controls.

Dengue-2 = Dengue-2 infection of Vero cells, Intracellular FACS Assay; assay type: cell-based; details: 20 μM, Vero cells 3 days post-infection; for % of Dead cells PI: propidium iodide staining
Protocol: Intracellular FACS Assay: Vero cells were seeded for 24 h pre-infection in 6-well plates. Cells were exposed to Dengue-2 in the presence of increasing concentrations of peptide (or DMSO as control). Viruses and peptide were washed away 2 h post-infection. Cells were taken for intracellular staining 3 days post-infection. Cells were stained with appropriate isotype control, Dengue Env, Dengue capsid or tubulin antibodies. Cells were analyzed by FACS.

HCV [2] = test: HCV focus reduction assay; assay type: cell-based, Hepatitis C virus (JFH-1); details: for Inhibition of HCV infection: cell culture model of HCV infection; for Fold Inhibition: inhibition of HCV infection; for Fold Inhibition / % of Mock: peptide approximately 20 μM, Huh-7.5.1 cells, 3 days; for % of Mock: number of HCV foci as % of mock (0.5% DMSO); for Fold inhibition of HCV infection: peptide library screen, approximately 20 μM; for Focus Reduction (72 h): working concentration 18.4-27.5 μM per peptide, Mock 51
Protocol: To identify peptides that display antiviral activity against HCV infection, the peptide library was screened by an HCV focus reduction assay. The peptides were constituted in 100% DMSO at a final concentration 10 mg/mL, and stored in −20° C. The peptide stock solution was diluted 1:200 to a final concentration approximately 20 μM in complete DMEM growth medium containing 50 focus forming units (ffu) of HCV. The virus-peptide mixture was transferred to Huh-7.5.1 cells at a density of 8000 cells per well in a 96-well plate. After adsorption for 4 hours at 37° C., the inoculum was removed. The cells were washed 2 times, overlaid with 120 μL fresh growth medium and incubated at 37° C. After 3 days of culture, the cells were fixed with paraformaldehyde and immunostained with antibody against HCV nonstructural protein NS5A. The numbers of HCV foci were counted under fluorescent microscopy and the result is expressed as percentage (%) of mock with no peptide treatment but containing solvent 0.5% DMSO.
To determine whether the antiviral activity of peptide 1 is dependent on its primary amino acid sequence, four derivative peptides from peptide 1 were synthesized to a purity >95%. The four derivatives having the same composition of amino acids included (1) the reversed the sequence of peptide 1 (also called retro-peptide); (2) scrambled hydrophobic amino acids; (3) scrambled hydrophilic amino acids; and (4) a derivative in which the aspartic acid residues (D) were replaced with proline residues (P). The antiviral activity of the peptides was examined by HCV focus reduction assay at three peptide concentrations: 18 μM, 6 μM and 2 μM, as described above.

HCV [3] = test: Intracellular HCV RNA by real time RT-QPCR after infection of Huh-7.5.1 cells with and without peptide; assay type: cell-based, Hepatitis C virus (JFH-1); details: for HCV RNA fold inhibition 24 h 25 μM / HCV RNA fold inhibition 72 h 25 μM: Huh-7.5.1 cells, MOI 0.1, normalized to GAPDH; for Fold Inhibition on HCV RNA (24 h) / Fold Inhibition on HCV RNA (72 h): working concentration 18.4-27.5 μM per peptide
Protocol: To accurately quantify the inhibitory effect of the selected peptides on HCV infection, intracellular HCV RNA was measured after infection by real time RT-QPCR with and without peptide treatment. The peptide stock solution was diluted 1:100 and mixed with equal volume of viral supernatant (propagated from day 18 virus preparation post transfection) to a final concentration approximately 20 μM. The virus with peptide or 0.5% DMSO solvent control was then used to infect Huh-7.5.1 cells at a multiplicity of infection (MOI) of 0.1. After an adsorption for 4 hours at 37° C., the inoculum was removed. The cells were washed 2 times, overlaid with 120 μL fresh growth medium and incubated at 37° C. At the indicated time points, total cellular RNA was isolated by the guanidine thiocyanate method. The HCV RNA transcript level was measured by real time RT-QPCR with the primers 5′—
normalized to cellular GAPDH levels.
To define the antiviral action of peptide #1 (SEQ ID NO:43), the antiviral activity of a series of N-terminal and C-terminal truncations of peptide 1 was analyzed using the focus reduction assay and by measuring the reduction in intracellular HCV RNA as described.

Row | Molecule | Inhibition of HCV infection (HCV [2]) | Fold Inhibition (HCV [2]) | % of Mock (HCV [2]) | Fold inhibition of HCV infection (HCV [2]) | HCV RNA fold inhibition 24 h 25 μM (HCV [3]) | HCV RNA fold inhibition 72 h 25 μM (HCV [3]) | Focus Reduction (72 h) (HCV [2]) | Fold Inhibition on HCV RNA (24 h) (HCV [3]) | Fold Inhibition on HCV RNA (72 h) (HCV [3]) | also measured
1 | CSCC[C@H](NC(=O)[C@H](CO)NC(=O)[C@H](CS)NC(=O)[C@H](CS)NC(=O)[C@@H](NC(=O)[C@@H](NC(=O)[C@H](CC(=O)O)NC(=O)[C@H](CCC(=O)O)NC(=O)[C@@H](NC(=O)[C@H](CC(=O)O)NC(=O)[C@H](C)NC(=O)CNC(=O)[C@H](CO)NC(=O)[C@@H](N)CO)[C@@H](C)O)C(C)C)C(C)C)C(=O)N[C@@H](CO)C(=O)N[C@@H](Cc1ccc(O)cc1)C(=O)N[C@@H](CO)C(=O)N[C@@H](Cc1c[nH]c2ccccc12)C(=O)O [Peptide 3] | – | – | – | – | – | – | – | – | – | In vivo toxicity observation ([1]; 92 μg ( ˜4 mg/kg) in 200 μL PBS, acute toxicity first 3 hours, weight to day 10): Peptides 1, 2 and 3 are Nontoxic in C57BL/6 Mice; Weight(g) (d.0) ([1]; day 0, ˜4 mg/kg injected): 24.1 g; Weight(g) (d.3) ([1]; day 3): 24.1 g; Weight(g) (d.5) ([1]; day 5): 24.7 g; Weight(g) (d.7) ([1]; day 7): 24.7 g; Weight(g) (d.10) ([1]; day 10): 24.7 g
2 | DIWDWICEVLSDFK [^N-14mer] | – | – | – | – | – | – | – | – | – | % of Dead cells PI (Dengue-2): 0.76%
3 | IFLLALLSCLTVPASAYQ [Peptide 8] | strongly inhibit HCV infection | 42.0 fold | 2.4% | more than ten-fold | 18 fold | 7 fold | – | – | – | –
4 | IMDMIAGAHWGVLAGIAY [Peptide 9] | strongly inhibit HCV infection | 42.0 fold | 2.4% | more than ten-fold | 10 fold | 22 fold | – | – | – | –
5 | LYGNEGCGWAGWLLSPRG [Peptide 10] | – | – | – | – | – | – | – | – | – | % of Dead cells PI (Dengue-2): 4.05%
6 | SWLRDIWD [^C-8mer] | – | – | – | – | – | – | 58 | 1.3 fold | 1.0 fold | –
7 | SWLRDIWDWI [^C-10mer] | – | – | – | – | – | – | 65 | 0.8 fold | 0.6 fold | % GATED, Dengue α-Capsid (9A7) (Dengue-2; DMSO 41.26): 37.21%; % of Dead cells PI (Dengue-2): 1.2%
8 | SWLRDIWDWICE [^C-12mer] | – | – | – | – | – | – | 107 | 0.8 fold | 0.5 fold | –
9 | SWLRDIWDWICEV [^C-13mer] | – | – | – | – | – | – | – | – | – | % of Dead cells PI (Dengue-2): 3.04%
10 | SWLRDIWDWICEVLSD [^C-16mer] | – | – | – | – | – | – | 0 | 9852.6 fold | 234207.1 fold | –
11 | TLVFDITKLLLAIFGPLW [Peptide 6] | strongly inhibit HCV infection | 100.0 fold | 1.0% | more than ten-fold | 24 fold | 16 fold | – | – | – | –
12 | WDWICEVLSDFK [^N-12mer] | – | – | – | – | – | – | 38 | 2.2 fold | 1.4 fold | –
13 | WICEVLSDFK [^N-10mer] | – | – | – | – | – | – | 45 | 1.1 fold | 1.0 fold | –
14 | WMMLLISQAEAALENLVI [Peptide 4] | strongly inhibit HCV infection | 21.0 fold | 4.8% | more than ten-fold | 27 fold | 40 fold | – | – | – | –
15 | YLYGVGSSIASWAIKWEY [Peptide 11] | strongly inhibit HCV infection | 42.0 fold | 2.4% | more than ten-fold | 9 fold | 7 fold | – | – | – | –
